Test results from PMC5874716, “Antimicrobial Peptides for Topical Treatment of Osteomyelitis and Implant-Related Infections: Study in the Spongy Bone” (Pharmaceuticals, 2018).
Structures can show the parent of a compound that is named as a salt. Non-standard residues stand in square brackets, D forms with d. Residues, ends and D or L forms follow the SMILES beside them. No end group written: not given here. βAla = NCCC(=O)O

Experiments:
[1] = test system: MRSA clinical isolate from University Hospital in Motol (MRSA (M)); assay: microbe, parasite or virus in culture; format: cell-based; settings: clinical isolate Motol, Bioscreen C, at least three times in duplicates
Procedure: (§1) Femur heads (ca. 70 pieces) taken from patients during hip replacement surgery were periodically purchased in the period between 2014–2017 as discarded from the bone tissue bank at University Hospital in Motol, Prague, Czech Republic. The reason for the replacements by artificial prosthesis was the worn out cartilage on the surface of their heads. Bone samples were stored at −80 °C under standard conditions of certified tissue banks. In the laboratory, they were kept at +5 °C overnight and then at room temperature for several hours before they could be used for the experiments. The experiments with this material were approved by the Ethics Committee for Multi-Centric Clinical Trials of the University Hospital Motol, Reference No: EK-655/15. Methicillin-resistant S. aureus (MRSA 6271) ATCC 43300 and P. aeruginosa (5482) ATCC 27853 were purchased from the Czech National Collection of Type Cultures, National Institute of Public Health, Prague, Czech Republic. Methicillin-resistant S. aureus (MRSA (L)) and P. aeruginosa (L) were obtained as multi-resistant clinical isolates from Liberec Regional Hospital, Liberec, Czech Republic. Methicillin-resistant S. aureus (MRSA (M)), E. faecalis and S. epidermidis were obtained as clinical isolates from University Hospital in Motol, Prague. Candida albicans (F7-39/IDE99) came from the mycological collection of the Faculty of Medicine, Palacky University, Olomouc, Czech Republic. C. albicans ATCC MYA-2876, C. tropicalis ATCC 750 and C. glabrata DSY565 were kindly provided by Dr. Hana Sychrová from the Institute of Physiology, Academy of Sciences of the Czech Republic, Prague. Vancomycin hydrochloride, gentamicin sulfate, ceftriaxone disodium salt, amphotericin B, fluconazole, and clotrimazole were obtained from Sigma-Aldrich, Prague, Czech Republic.
(§2) MIC values for peptides were established by observing growth of treated bacteria in HONEYCOMB 100-well microtiter plates (Helsinki, Finland) using a Bioscreen C instrument (Oy Growth Curves, Helsinki, Finland) as previously described. Haemolytic activity of peptides expressed as the concentration of a peptide required for lysis of 50% of human erythrocytes in the assay (LC50) was measured using a Tecan infinite M200 PRO reader (Tecan Austria GmbH, Grödig, Austria). Blood samples for determining haemolytic activity were obtained from healthy volunteers.

[2] = test system: P. aeruginosa (5482) ATCC 27853; assay: microbe, parasite or virus in culture; format: cell-based; settings: Bioscreen C, at least three times in duplicates
Procedure: as §1, §2

[3] = test system: MRSA clinical isolate from Liberec Regional Hospital (MRSA (L)); assay: microbe, parasite or virus in culture; format: cell-based; settings: clinical isolate Liberec, Bioscreen C, at least three times in duplicates
Procedure: as §1, §2

[4] = test system: MRSA 6271 (ATCC 43300); assay: microbe, parasite or virus in culture; format: cell-based; settings: growth in 100-well microtiter plates, Bioscreen C, tested at least three times in duplicates
Procedure: as §1, §2

[5] = test system: P. aeruginosa clinical isolate from Liberec Regional Hospital; assay: microbe, parasite or virus in culture; format: cell-based; settings: clinical isolate Liberec, Bioscreen C, at least three times in duplicates
Procedure: as §1, §2

[6] = test system: E. faecalis clinical isolate (Motol); assay: microbe, parasite or virus in culture; format: cell-based; settings: clinical isolate Motol, Bioscreen C, at least three times in duplicates
Procedure: as §1, §2

[7] = test system: S. epidermidis clinical isolate (Motol); assay: microbe, parasite or virus in culture; format: cell-based; settings: clinical isolate Motol, Bioscreen C, at least three times in duplicates
Procedure: as §1, §2

[8] = test system: Candida albicans; format: cell-based; settings: Bioscreen C; at least three times in duplicates
Procedure: as §1, §2

[9] = test system: human erythrocytes; assay: Haemolysis assay; format: cell-based; settings: concentration causing lysis of 50% of human red blood cells; at least three times in duplicates
Procedure: as §2

[10] = test system: laboratory rats; settings: infected femurs of laboratory rats treated locally; cited from earlier work
From the text: Another issue might be the toxicity of these peptides when applied locally to the bone tissue of laboratory animals or humans. […] None of these animals died.

Row | Compound | Antimicrobial Activity MIC, MRSA b [1] [µM] | Antimicrobial Activity MIC, P. a. 5482 [2] [µM] | Antimicrobial Activity MIC, MRSA a [3] [µM] | Antimicrobial Activity MIC, MRSA 6271 [4] [µM] | Antimicrobial Activity MIC, P. a. a [5] [µM] | Antimicrobial Activity MIC, E. f. b [6] [µM] | Antimicrobial Activity MIC, S. e. b [7] [µM] | Antimicrobial Activity MIC, C. a. [8] [µM] | Haemolytic Activity LC50 [9] [µM] | MIC ([1]; Staphylococcus aureus, MRSA, read-out: Antimicrobial Activity MIC, MRSA b) [µM] | MIC ([2]; Pseudomonas aeruginosa, ATCC27853, read-out: Antimicrobial Activity MIC, P. a. 5482) [µM] | MIC ([3]; Staphylococcus aureus, MRSA, read-out: Antimicrobial Activity MIC, MRSA a) [µM] | MIC ([4]; Staphylococcus aureus, read-out: Antimicrobial Activity MIC, MRSA 6271) [µM] | MIC ([5]; Pseudomonas aeruginosa, read-out: Antimicrobial Activity MIC, P. a. a) [µM] | MIC ([6]; Enterococcus faecalis, read-out: Antimicrobial Activity MIC, E. f. b) [µM] | MIC ([7]; Staphylococcus epidermidis, read-out: Antimicrobial Activity MIC, S. e. b) [µM] | animals died [10] | signs of local or systemic toxicity [10]
1 | KWMKLLKKILK-NH2 [IX] | 17.7 | 2.9 | 8.0 | 13.5 | 5.8 | >100 | 3.2 | 9.5 | >400 | – | – | – | – | – | – | – | – | –
2 | GKWMKMLKKILK-NH2 [IV] | 20.0 | 5.3 | 10.0 | 20.0 | 12.7 | >100 | 3.2 | 12.7 | >200 | – | – | – | – | – | – | – | – | –
3 | GKWVKLLKKILK-NH2 [VI] | 10.0 | 3.0 | 5.0 | 9.0 | 12.7 | >100 | 2.5 | 6.3 | >400 | – | – | – | – | – | – | – | – | –
4 | CC[C@@H](C)[C@@H](NC(=O)[C@@H](CCCCN)NC(=O)[C@@H](CCCCN)NC(=O)[C@@H](CC(C)C)NC(=O)[C@@H](CC(C)C)NC(=O)[C@@H](CCCCN)NC(=O)[C@@H](CCSC)NC(=O)[C@@H](Cc1c[nH]c2ccccc12)NC(=O)[C@@H](CCCCN)NC(=O)CN)C(=O)N[C@H](CC(C)C)C(=O)N[C@H](CCCCN)C(N)=O [II] (H-G[dK][dW][dM][dK][dL][dL][dK][dK][dI][dL][dK]-NH2; N-terminus assumed) | 9.7 | 4.5 | 5.3 | 11.3 | 12.5 | 12.7 | 2.0 | 5.7 | >400 | – | – | – | – | – | – | – | – | –
5 | CNC(C)C1CCC(N)C(OC2C(N)CC(N)C(OC3OCC(C)(O)C(NC)C3O)C2O)O1 (stereo not drawn) [Gentamicin, gentamicin sulfate, reference compound] | – | – | – | – | – | – | – | – | – | 4.5 | 2 | 3.9 | 325 | > 220 | 95.2 | 109 | – | –
6 | CC[C@@H](C)[C@@H](NC(=O)[C@@H](CCCCN)NC(=O)[C@@H](CCCCN)NC(=O)[C@@H](CC(C)C)NC(=O)[C@@H](CC(C)C)NC(=O)[C@@H](CCCCN)NC(=O)[C@@H](CCSC)NC(=O)[C@@H](Cc1c[nH]c2ccccc12)NC(=O)[C@H](N)CCCCN)C(=O)N[C@H](CC(C)C)C(=O)N[C@H](CCCCN)C(N)=O [X] (H-[dK][dW][dM][dK][dL][dL][dK][dK][dI][dL][dK]-NH2; N-terminus assumed) | 14.0 | 4.5 | 14.0 | 19.3 | 18.0 | 36 | 3.5 | 11.3 | >400 | – | – | – | – | – | – | – | – | –
7 | GKWKKLLKKILK-NH2 [III] | 25.3 | 2.9 | 11.5 | 29.7 | 9.5 | >100 | 4.7 | 9.5 | >400 | – | – | – | – | – | – | – | – | –
8 | CC[C@@H](C)[C@@H](NC(=O)[C@@H](CCCCN)NC(=O)[C@@H](CCCCN)NC(=O)[C@@H](CC(C)C)NC(=O)[C@@H](CC(C)C)NC(=O)[C@@H](CCCCN)NC(=O)[C@H](NC(=O)[C@@H](Cc1c[nH]c2ccccc12)NC(=O)[C@@H](CCCCN)NC(=O)CN)C(C)C)C(=O)N[C@H](CC(C)C)C(=O)N[C@H](CCCCN)C(N)=O [VII] (H-G[dK][dW][dV][dK][dL][dL][dK][dK][dI][dL][dK]-NH2; N-terminus assumed) | 22.0 | 4.5 | 15.0 | 22.0 | 25.3 | 25.3 | 4.2 | 12.5 | >400 | – | – | – | – | – | – | – | – | –
9 | CC[C@@H](C)[C@@H](NC(=O)[C@@H](CCCCN)NC(=O)[C@@H](CCCCN)NC(=O)[C@@H](CC(C)C)NC(=O)[C@@H](CC(C)C)NC(=O)[C@@H](CCCCN)NC(=O)[C@@H](CCSC)NC(=O)[C@@H](Cc1c[nH]c2ccccc12)NC(=O)[C@@H](CCCCN)NC(=O)CCN)C(=O)N[C@H](CC(C)C)C(=O)N[C@H](CCCCN)C(N)=O [XII] (H-[βAla][dK][dW][dM][dK][dL][dL][dK][dK][dI][dL][dK]-NH2; N-terminus assumed) | 16.0 | 3.2 | 8.0 | 16.0 | 8.0 | 32.0 | 2.5 | 5.3 | >400 | – | – | – | – | – | – | – | – | –
10 | GKWMKLLKKILK-NH2 [I] | 5.7 | 2.8 | 3.6 | 6.3 | 10.0 | 13.3 | 2.3 | 5.7 | 339 | – | – | – | – | – | – | – | None | did not notice any signs of local or systemic toxicity
11 | GKWLKLLKKILK-NH2 [V] | 10.0 | 4.0 | 8.0 | 10.0 | 10.7 | 50.7 | 2.2 | 16.0 | 196 | – | – | – | – | – | – | – | – | –
